The results in this text go back to patent US9994913B2, “Methods and compositions for detecting and treating drug resistant AKT mutant” (Genentech, Inc., priority 2013, dated 2018).

Holding throughout (assay type): cell-based
For one assay, the system named is IGROV1 cells. Briefly: Treatment of parental and AKT-inhibitor-resistant IGROV1 ovarian cancer cells (FIGS. 7-9). Conditions: for potency in parental and resistant lines: all IGROV1 lines, FIG. 9. How it is done:
(§1) The in vitro potency of the combinations of the compound of Example 2 with certain specific chemotherapeutic agents was measured using the CellTiterGlo® Luminescent Cell Viability Assay, commercially available from Promega Corp., Madison, Wis. This homogeneous assay method is based on the recombinant expression of Coleoptera luciferase (U.S. Pat. Nos. 5,583,024; 5,674,713; 5,700,670) and determines the number of viable cells in culture based on quantitation of the ATP present, an indicator of metabolically active cells (Crouch et al (1993) J. Immunol. Meth. 160:81-88; U.S. Pat. No. 6,602,677). The CellTiter-Glo® Assay was conducted in 96 or 384 well format, making it amenable to automated high-throughput screening (HTS) (Cree et al (1995) AntiCancer Drugs 6:398-404). The homogeneous assay procedure involves adding the single reagent (CellTiter-Glo® Reagent) directly to cells cultured in serum-supplemented medium. Cell washing, removal of medium and multiple pipetting steps are not required. The system detects as few as 15 cells/well in a 384-well format in 10 minutes after adding reagent and mixing.
The homogeneous “add-mix-measure” format results in cell lysis and generation of a luminescent signal proportional to the amount of ATP present. The amount of ATP is directly proportional to the number of cells present in culture. The CellTiterGlo® Assay generates a “glow-type” luminescent signal, produced by the luciferase reaction, which has a half-life generally greater than five hours, depending on cell type and medium used. Viable cells are reflected in relative luminescence units (RLU). The substrate, Beetle Luciferin, is oxidatively decarboxylated by recombinant firefly luciferase with concomitant conversion of ATP to AMP and generation of photons. The extended half-life eliminates the need to use reagent injectors and provides flexibility for continuous or batch mode processing of multiple plates. This cell proliferation assay can be used with various multiwell formats, e.g. 96 or 384 well format. Data can be recorded by luminometer or CCD camera imaging device. The luminescence output is presented as relative light units (RLU), measured over time.

The next assay deals with pS6. Briefly: Western blot of AKT inhibitor dosed LNCaP cells, downstream pS6 (FIGS. 3-4). The text has this:
(§2) FIGS. 3-4 show Western blot analysis of AKT inhibitor dosed to cancer cells (LNCaP cells).

A further assay concerns LNCaP cells. Put plainly: Dose response of AKT inhibitors in parental and AKT-inhibitor-resistant LNCaP cells (FIGS. 1-2, 6). How it is done:
Resistant clones to both inhibitors were derived from populations of cancer cells treated with increasing doses of AKT inhibitor over time. […] For MK2206, cells that are ˜40× less sensitive were cloned.
as §1
The homogeneous “add-mix-measure” format results in cell lysis and generation of a luminescent signal proportional to the amount of ATP present. The amount of ATP is directly proportional to the number of cells present in culture. The CellTiterGlo® Assay generates a “glow-type” luminescent signal, produced by the luciferase reaction, which has a half-life generally greater than five hours, depending on cell type and medium used. Viable cells are reflected in relative luminescence units (RLU). […] Data can be recorded by luminometer or CCD camera imaging device. The luminescence output is presented as relative light units (RLU), measured over time.

The next assay concerns Akt. Briefly: Western blot of AKT inhibitor dosed LNCaP cells, Akt phosphorylation and inhibitor binding (FIGS. 3-4). The following applies: MK2206 resistant LNCaP cells vs parental lines.
Source text: as §2

Entries after “also recorded” stand apart in the source; their conditions may differ.

Regarding `CC(C)NC[C@@H](C(=O)N1CCN(c2ncnc3c2[C@H](C)C[C@H]3O)CC1)c1ccc(Cl)cc1` [GDC-0068, (S)-2-(4-chlorophenyl)-1-(4-((5R,7R)-7-hydroxy-5-methyl-6,7-dihydro-5H-cyclopenta [d]pyrimidin-4-yl)piperazin-1-yl)-3-(isopropylamino)propan-1-one], the “resistance of GDC0068-resistant cells to the inhibitor” value in the assay with IGROV1 cells (IGROV1 cells resistant to GDC0068, GDC-0068 compared with MK2206) was “more resistant to GDC-0068 than MK2206”. For the same compound, in the assay with pS6 (GDC-0068 resistant LNCaP cells), the “inhibition of downstream pS6” value was “less potent”. Also, the “sensitivity of MK2206-resistant cells to the inhibitor” value in the assay with LNCaP cells (MK2206-resistant LNCaP cells, FIG. 6) is given as “still sensitive; also recorded: remain sensitvie”.

Turning to `CS(=O)(=O)N1CCN(Cc2cc3nc(-c4cccc5[nH]ncc45)nc(N4CCOCC4)c3s2)CC1` [GDC-0941], the “potency in parental and resistant lines” value in the assay with IGROV1 cells is reported as “remain potent”.

Consider `Cc1c(CN2CCN(C(=O)[C@H](C)O)CC2)sc2c(N3CCOCC3)nc(-c3cnc(N)nc3)nc12` [GDC-0980], for which the “potency in parental and resistant lines” value with IGROV1 cells was “remain potent”.

`NC1(c2ccc(-c3nc4ccn5c(=O)[nH]nc5c4cc3-c3ccccc3)cc2)CCC1` [MK2206, 8-[4-(1-aminocyclobutyl)phenyl]-9-phenyl-1,2,4-triazolo[3,4-f][1,6]naphthyridin-3(2H)-one]: in the assay with Akt, the “inhibition of Akt phosphorylation” value is “failed to inhibit Akt phosphorylation”. Also, the “resistance to allosteric inhibition” value in the assay with IGROV1 cells (IGROV1 cells resistant to GDC0068 and cells resistant to MK2206) is recorded as “equally resistant”. Further, in the assay with pS6 (MK2206 resistant LNCaP cells), the “inhibition of pS6” value is listed as “lost the inhibition of pS6”. The “resistance of GDC-0068 selected cells to the inhibitor” value with LNCaP cells (GDC-0068 selected LNCaP cells, FIG. 6) is recorded as “similarly resistant”. Also, the “fold less sensitive to MK2206, resistant clones vs parental” value in the assay on LNCaP cells (LNCaP clones derived under increasing doses of MK2206) is around 40 ×.
